Reference: ChEMBL document CHEMBL1201862, “PubChem BioAssay data set” (2004)
Counter-ions that a name gives are not always drawn.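 Each compound was tested at five concentrations against cells in 96-well plates for 48 hours. Abbreviation: GI50, concentration required for 50% inhibition of growth.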 Activity calls are given as the source filed them. Rule as the data show it: active = GI50 up to about 1.1 µM and inactive = higher.

What was measured:
Test in all cases: NCI tumour cell line growth inhibition, 48 h
[1] = system: K562
[2] = system: MDA-N
[3] = system: COLO 205
[4] = system: SW-620
[5] = system: SF-268
[6] = system: SR
[7] = system: KM12
[8] = system: TK-10
[9] = system: HT-29
[10] = system: Malme-3M
[11] = system: SF-295
[12] = system: UACC-257
[13] = system: SNB-75
[14] = system: UACC-62
[15] = system: BT-549
[16] = system: HOP-92
[17] = system: RXF 393
[18] = system: SNB-19
[19] = system: NCI-H460
[20] = system: PC-3

Compound	GI50 [1]	GI50 [2]	GI50 [3]	GI50 [4]	GI50 [5]	GI50 [6]	GI50 [7]	GI50 [8]	GI50 [9]	GI50 [10]	GI50 [11]	GI50 [12]	GI50 [13]	GI50 [14]	GI50 [15]	GI50 [16]	GI50 [17]	GI50 [18]	GI50 [19]	GI50 [20]
O=C1OC2(c3ccc(O)cc3Oc3cc(O)ccc32)c2c1c(-c1ccccc1)c(-c1ccccc1)c(-c1ccccc1)c2-c1ccccc1	29.6 µM (inactive)	21.8 µM (inactive)	19.3 µM (inactive)	20.9 µM (inactive)	22.2 µM (inactive)	22.6 µM (inactive)	17.1 µM (inactive)	23.7 µM (inactive)	18.7 µM (inactive)	23.5 µM (inactive)	21.6 µM (inactive)	27.7 µM (inactive)	18.7 µM (inactive)	18.7 µM (inactive)	23.6 µM (inactive)	20 µM (inactive)	23.7 µM (inactive)	18.7 µM (inactive)	17.7 µM (inactive)	17.9 µM (inactive)
O=C1c2c(O)cccc2-c2nn(CCNCCO)c3ccc(NCCNCCO)c1c23 [LOSOXANTRONE HYDROCHLORIDE]	0.238 µM (active)	0.48 µM (active)	0.158 µM (active)	0.116 µM (active)	0.0316 µM (active)	< 0.01 µM (active)	0.59 µM (active)	0.685 µM (active)	0.303 µM (active)	0.123 µM (active)	0.0236 µM (active)	1.6 µM (inactive)	0.047 µM (active)	< 0.0451 µM (active)	0.182 µM (active)	0.0285 µM (active)	0.188 µM (active)	< 0.0167 µM (active)	< 0.01 µM (active)	0.16 µM (active)
OC1C[C@H](c2ccccc2)C2(C(O)c3ccccc3C2O)[C@@H](c2ccccc2)C1 (some centres undefined)	> 100 µM (inactive)	> 100 µM (inactive)	> 100 µM (inactive)	> 100 µM (inactive)	> 100 µM (inactive)	11.1 µM (inactive)	> 100 µM (inactive)	> 100 µM (inactive)	> 100 µM (inactive)	> 100 µM (inactive)	> 100 µM (inactive)	32.2 µM (inactive)	53.7 µM (inactive)	> 100 µM (inactive)	> 100 µM (inactive)	57.4 µM (inactive)	> 100 µM (inactive)	> 100 µM (inactive)	> 100 µM (inactive)	> 100 µM (inactive)
CO[C@H]1O[C@@H]2CO[C@@H](c3ccccc3)O[C@H]2[C@@H]2C/C=C\CCC[C@@]12O	20 µM (inactive)	25.1 µM (inactive)	17.2 µM (inactive)	26.9 µM (inactive)	21.6 µM (inactive)	20.3 µM (inactive)	22.5 µM (inactive)	34.8 µM (inactive)	17.9 µM (inactive)		19.7 µM (inactive)	18.5 µM (inactive)	59.6 µM (inactive)	15.7 µM (inactive)	20.2 µM (inactive)	20 µM (inactive)	17.2 µM (inactive)	38.7 µM (inactive)	16.8 µM (inactive)	25.3 µM (inactive)
Br[Se]c1ccccn1	24.8 µM (inactive)	17.7 µM (inactive)	17.1 µM (inactive)	23.9 µM (inactive)	18.2 µM (inactive)	23.4 µM (inactive)	17.3 µM (inactive)	20.2 µM (inactive)	25.3 µM (inactive)	17.4 µM (inactive)	4.5 µM (inactive)	17.8 µM (inactive)	17 µM (inactive)	17.1 µM (inactive)	18.9 µM (inactive)	18.5 µM (inactive)	17.2 µM (inactive)	12.4 µM (inactive)	18.9 µM (inactive)	16.4 µM (inactive)
CC(=O)c1cccc(NC(=O)/C(=N\NC(=S)NN)C2C(=O)Nc3ccccc3[S+]2[O-])c1 (centres undefined)	> 100 µM (inactive)	> 100 µM (inactive)		> 100 µM (inactive)	> 100 µM (inactive)	> 100 µM (inactive)	> 100 µM (inactive)	> 100 µM (inactive)	> 100 µM (inactive)	> 100 µM (inactive)	> 100 µM (inactive)	> 100 µM (inactive)	> 100 µM (inactive)	> 100 µM (inactive)	> 100 µM (inactive)	83.8 µM (inactive)	> 100 µM (inactive)	> 100 µM (inactive)		> 100 µM (inactive)
CCN(CC)CCCNc1nncc2c(C)c3[nH]c4ccccc4c3cc12		1.06 µM (active)	0.653 µM (active)			0.247 µM (active)	0.667 µM (active)	4.52 µM (inactive)	0.258 µM (active)	1.04 µM (active)	2.74 µM (inactive)	1.24 µM (inactive)	1.41 µM (inactive)	0.637 µM (active)	1.34 µM (inactive)	0.847 µM (active)	1.63 µM (inactive)	0.644 µM (active)	0.281 µM (active)	0.705 µM (active)
